From ChEMBL document CHEMBL1201862, “PubChem BioAssay data set” (2004)
The source made the active and inactive calls.

How the values were obtained:
[1] = NIH3T3 cell viability loss – ATP luminescence, mouse fibroblasts, counter-screen, dose response (AID 2010); format: functional, cell-based;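 also: cells exposed to compound for about 90 hours before reading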
[2] = target: T1, Replicative DNA helicase DnaB (Mycobacterium tuberculosis, UniProt P9WMR3); assay: DnaB intein splicing inhibitors, dose response, biochemical, cell-free fluorescence (AID 449749); format: functional
T1 sequence (P9WMR3 whole entry): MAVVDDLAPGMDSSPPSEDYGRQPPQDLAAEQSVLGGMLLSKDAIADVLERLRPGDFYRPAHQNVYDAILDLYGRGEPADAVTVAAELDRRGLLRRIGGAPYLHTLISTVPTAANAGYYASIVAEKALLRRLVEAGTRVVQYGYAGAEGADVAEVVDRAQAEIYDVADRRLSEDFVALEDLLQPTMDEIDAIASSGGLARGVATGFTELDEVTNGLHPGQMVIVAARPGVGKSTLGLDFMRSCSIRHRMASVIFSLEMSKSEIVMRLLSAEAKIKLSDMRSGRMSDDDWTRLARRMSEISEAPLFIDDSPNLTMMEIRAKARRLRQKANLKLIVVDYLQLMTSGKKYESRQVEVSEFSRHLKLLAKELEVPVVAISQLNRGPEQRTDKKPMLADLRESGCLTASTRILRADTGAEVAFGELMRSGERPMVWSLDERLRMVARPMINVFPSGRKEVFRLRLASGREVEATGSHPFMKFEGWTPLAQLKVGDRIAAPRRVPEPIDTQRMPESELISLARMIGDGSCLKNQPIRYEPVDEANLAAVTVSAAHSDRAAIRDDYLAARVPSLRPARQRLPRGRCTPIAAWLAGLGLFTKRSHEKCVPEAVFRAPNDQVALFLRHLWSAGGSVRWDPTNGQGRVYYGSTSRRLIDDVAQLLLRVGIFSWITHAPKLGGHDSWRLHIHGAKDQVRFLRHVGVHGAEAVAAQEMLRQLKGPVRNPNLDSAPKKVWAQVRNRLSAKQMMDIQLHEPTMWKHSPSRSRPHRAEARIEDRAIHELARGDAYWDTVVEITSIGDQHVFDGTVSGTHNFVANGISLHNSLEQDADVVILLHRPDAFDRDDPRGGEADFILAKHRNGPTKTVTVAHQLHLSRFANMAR

[3] = cAMP pathway inhibition in counterscreen cell line – TR-FRET cAMP detection, counter-screen for MC4R biased antagonist project, dose response (AID 602305); format: functional, cell-based;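 also: U2OS cells stimulated with forskolin near its EC80 as the cAMP inducer; potency is for inhibition of forskolin-stimulated cAMP signaling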
[4] = test system: INS1; assay: INS-1E survival protection against cytokine death – cell-based, luminescence, retest, dose response (AID 449756); format: functional; conditions: Rattus norvegicus;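 also: cell death triggered by IL-1 beta plus TNF-alpha plus IFN-gamma mixture; protective hits raise ATP signal compared with cytokine alone wells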
[5] = viability loss in HEK293 kidney cells – cell-based, cherry-picks, set 5, cytotoxicity control, dose response (AID 1053117); format: functional
[6] = target: Melanocortin receptor 4 (Homo sapiens, UniProt P32245); assay: inhibitors of MC4R cAMP signaling – cell-based, TR-FRET, biased antagonists, dose response (AID 602298); format: functional;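 also: antagonist potency against agonist-stimulated cAMP production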
[7] = target: Large T antigen (Simian virus 40, UniProt P03070); format: functional, Betapolyomavirus macacae;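 also: Confirmatory-stage PubChem screen for compounds that inhibit SV40 T antigen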
[8] = test system: CHO; assay: CHO cell viability loss, potency – luminescence, cytotoxicity control for TLR9-MyD88 binding inhibitor project, dose response (AID 588339); format: functional, cell-based, hamster; conditions: Cricetulus griseus;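 also: CHO cells stably coexpressing TLR9 and MyD88 fusions from primary screen; compound exposure lasted 48 hours before viability readout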
[9] = viability loss in HepG2 hepatoma cells – cell-based, cherry-picks, set 5, cytotoxicity control, dose response (AID 1053118); format: functional
[10] = general cell-killing toxicity readout – plate reader, dry powder samples, cytotoxicity control for PAX8 inhibitor project, dose response (AID 743021); format: functional, cell-based
[11] = target: Beta Lactamase (Pseudomonas aeruginosa, UniProt Q932Y6); assay: BLA reporter interference, concentration series – BLA reporter cells, FRET fluorescence, artefact control for TLR9-MyD88 binding inhibitor project, dose response (AID 588341); format: cell-based;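 also: cell based assay in CHO-K1 cells stably expressing beta-lactamase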
[12] = target: T2, Type-1 angiotensin II receptor (Homo sapiens, UniProt P30556); assay: antagonism of angiotensin II type 1 receptor – cell-based, uHTS hits, selectivity assay for APJ receptor antagonist project, dose response (AID 463214); format: functional;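 also: antagonist potency against angiotensin II stimulated AT1 response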
T2 sequence (P30556 whole entry): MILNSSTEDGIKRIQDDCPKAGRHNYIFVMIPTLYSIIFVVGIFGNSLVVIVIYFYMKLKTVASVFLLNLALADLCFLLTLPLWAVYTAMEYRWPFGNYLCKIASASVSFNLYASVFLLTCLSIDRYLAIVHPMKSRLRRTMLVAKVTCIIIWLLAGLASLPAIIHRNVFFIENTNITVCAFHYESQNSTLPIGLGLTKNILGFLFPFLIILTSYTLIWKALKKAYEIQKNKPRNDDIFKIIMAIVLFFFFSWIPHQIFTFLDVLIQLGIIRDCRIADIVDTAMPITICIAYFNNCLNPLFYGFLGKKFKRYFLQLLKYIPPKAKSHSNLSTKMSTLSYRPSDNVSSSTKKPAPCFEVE

[13] = target: T3, Protein RecA (Mycobacterium tuberculosis, UniProt P9WHJ3); assay: Fluorescence Cell-Free Homogeneous Dose Retest to Identify Inhibitors of RecA-Intein Splicing Activity. [Related pubchem assays (depositor defined):AID2097, AID2223, AID489010, AID492950]; format: functional
T3 sequence (P9WHJ3 whole entry): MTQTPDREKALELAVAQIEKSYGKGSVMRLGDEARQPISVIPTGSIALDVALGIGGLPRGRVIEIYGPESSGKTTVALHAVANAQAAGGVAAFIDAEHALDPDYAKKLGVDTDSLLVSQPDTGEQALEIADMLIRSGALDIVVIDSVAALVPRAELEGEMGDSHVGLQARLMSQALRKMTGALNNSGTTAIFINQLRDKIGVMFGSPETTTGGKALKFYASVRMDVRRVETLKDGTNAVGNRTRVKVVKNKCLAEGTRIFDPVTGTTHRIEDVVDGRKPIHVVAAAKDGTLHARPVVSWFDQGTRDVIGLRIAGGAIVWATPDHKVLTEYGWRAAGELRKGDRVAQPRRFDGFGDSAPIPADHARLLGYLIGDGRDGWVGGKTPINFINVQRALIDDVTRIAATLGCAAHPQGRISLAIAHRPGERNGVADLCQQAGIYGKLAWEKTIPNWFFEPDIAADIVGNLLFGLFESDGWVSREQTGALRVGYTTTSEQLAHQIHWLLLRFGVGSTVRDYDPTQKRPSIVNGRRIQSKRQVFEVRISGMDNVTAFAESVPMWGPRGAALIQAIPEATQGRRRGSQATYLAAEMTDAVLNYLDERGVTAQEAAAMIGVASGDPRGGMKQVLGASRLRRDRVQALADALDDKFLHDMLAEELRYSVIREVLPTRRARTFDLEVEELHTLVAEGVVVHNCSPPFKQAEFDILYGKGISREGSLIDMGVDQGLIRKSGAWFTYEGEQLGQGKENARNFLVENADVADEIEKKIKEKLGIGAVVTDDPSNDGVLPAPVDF

[14] = THP-1 cell cytotoxicity, dose response, cytotoxicity control for non-replicating M. tuberculosis project (AID 489025); format: functional
[15] = target: Beta-galactosidase (Escherichia coli, UniProt Q8VNN2); assay: PubChem AID 485352; format: functional
[16] = target: Paired box protein Pax-8 (Homo sapiens, UniProt Q06710); assay: PAX8 transcriptional activity inhibition in RMG-I – RMG-I cells, luciferase, cherry-pick, dose response (AID 687027); format: functional, cell-based;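 also: luciferase reporter driven by Pax8 target thyroperoxidase promoter measured by SteadyGlo luminescence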
[17] = target: T4, Heat shock factor protein 1 (Mus musculus, UniProt P38532); assay: decrease of HSF1-responsive luciferase luminescence – cell-based, NIH3T3, dose retest, confirmation (AID 2382); format: functional;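 also: NIH3T3 fibroblasts with HSF1-driven luciferase reporter stressed by proteasome inhibitor MG132; luminescence from HSF1-driven luciferase expression after 8 hours of MG132 stress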
T4 sequence (P38532 whole entry): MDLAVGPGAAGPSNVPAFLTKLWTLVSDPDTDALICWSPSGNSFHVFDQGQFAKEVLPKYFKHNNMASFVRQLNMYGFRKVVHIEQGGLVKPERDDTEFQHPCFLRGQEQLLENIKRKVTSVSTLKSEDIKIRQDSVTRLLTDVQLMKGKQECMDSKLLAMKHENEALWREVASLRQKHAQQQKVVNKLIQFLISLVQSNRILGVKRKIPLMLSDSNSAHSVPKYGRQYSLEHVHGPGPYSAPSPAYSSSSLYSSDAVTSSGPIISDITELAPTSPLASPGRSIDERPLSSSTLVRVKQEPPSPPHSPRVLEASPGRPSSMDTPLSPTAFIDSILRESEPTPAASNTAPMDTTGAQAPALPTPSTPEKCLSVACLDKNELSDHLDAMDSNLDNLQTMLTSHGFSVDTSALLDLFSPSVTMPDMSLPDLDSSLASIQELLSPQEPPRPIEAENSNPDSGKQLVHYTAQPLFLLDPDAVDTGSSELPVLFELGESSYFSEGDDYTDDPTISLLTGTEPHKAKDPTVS

[18] = blockers of FN fibrillogenesis by fibroblasts – AH1F cells, Alexa488-FN fluorescence, cherry-picks, dose response (AID 1035475); format: functional, cell-based
[19] = Trypanosoma cruzi growth suppression in host cells – NIH3T3 host cells, beta-gal luminescence, confirmation (AID 2044); format: functional, cell-based;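 also: intracellular parasites grown in NIH/3T3 mouse fibroblasts as host cells; luminescent beta-galactosidase reporter signal from transgenic T. cruzi replicating inside host cells; inhibitors lower the luminescence signal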

Sequence of Large T antigen (P03070 whole entry, the tested form may be a part): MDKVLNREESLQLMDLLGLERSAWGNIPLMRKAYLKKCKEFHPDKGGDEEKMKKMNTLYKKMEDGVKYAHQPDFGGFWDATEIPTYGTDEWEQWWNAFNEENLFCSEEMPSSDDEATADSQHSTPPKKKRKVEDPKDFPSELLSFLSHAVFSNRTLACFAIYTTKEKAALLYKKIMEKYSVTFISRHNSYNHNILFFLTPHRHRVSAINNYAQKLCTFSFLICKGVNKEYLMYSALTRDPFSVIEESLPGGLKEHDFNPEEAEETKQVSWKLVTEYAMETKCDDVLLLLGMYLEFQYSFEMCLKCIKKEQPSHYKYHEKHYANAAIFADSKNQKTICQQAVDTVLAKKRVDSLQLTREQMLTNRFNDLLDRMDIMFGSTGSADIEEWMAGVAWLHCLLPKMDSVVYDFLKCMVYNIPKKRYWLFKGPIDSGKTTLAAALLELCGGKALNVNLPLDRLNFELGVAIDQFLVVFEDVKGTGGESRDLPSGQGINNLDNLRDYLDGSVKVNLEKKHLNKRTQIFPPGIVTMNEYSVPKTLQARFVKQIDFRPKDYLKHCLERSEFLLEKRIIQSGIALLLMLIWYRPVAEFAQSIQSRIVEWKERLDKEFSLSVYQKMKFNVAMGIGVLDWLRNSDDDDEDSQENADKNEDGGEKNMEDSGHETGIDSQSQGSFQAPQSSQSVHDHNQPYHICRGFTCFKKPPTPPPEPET
Sequence of Melanocortin receptor 4 (P32245 whole entry): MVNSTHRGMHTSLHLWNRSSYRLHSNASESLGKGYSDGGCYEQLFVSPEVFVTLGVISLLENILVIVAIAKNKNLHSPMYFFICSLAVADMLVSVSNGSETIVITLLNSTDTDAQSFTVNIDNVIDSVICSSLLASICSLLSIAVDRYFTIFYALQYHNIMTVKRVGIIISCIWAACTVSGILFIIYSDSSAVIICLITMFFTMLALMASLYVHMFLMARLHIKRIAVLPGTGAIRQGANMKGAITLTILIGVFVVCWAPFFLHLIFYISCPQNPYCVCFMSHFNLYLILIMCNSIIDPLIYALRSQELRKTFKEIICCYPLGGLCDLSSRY
Sequence of Beta-galactosidase (Q8VNN2 whole entry): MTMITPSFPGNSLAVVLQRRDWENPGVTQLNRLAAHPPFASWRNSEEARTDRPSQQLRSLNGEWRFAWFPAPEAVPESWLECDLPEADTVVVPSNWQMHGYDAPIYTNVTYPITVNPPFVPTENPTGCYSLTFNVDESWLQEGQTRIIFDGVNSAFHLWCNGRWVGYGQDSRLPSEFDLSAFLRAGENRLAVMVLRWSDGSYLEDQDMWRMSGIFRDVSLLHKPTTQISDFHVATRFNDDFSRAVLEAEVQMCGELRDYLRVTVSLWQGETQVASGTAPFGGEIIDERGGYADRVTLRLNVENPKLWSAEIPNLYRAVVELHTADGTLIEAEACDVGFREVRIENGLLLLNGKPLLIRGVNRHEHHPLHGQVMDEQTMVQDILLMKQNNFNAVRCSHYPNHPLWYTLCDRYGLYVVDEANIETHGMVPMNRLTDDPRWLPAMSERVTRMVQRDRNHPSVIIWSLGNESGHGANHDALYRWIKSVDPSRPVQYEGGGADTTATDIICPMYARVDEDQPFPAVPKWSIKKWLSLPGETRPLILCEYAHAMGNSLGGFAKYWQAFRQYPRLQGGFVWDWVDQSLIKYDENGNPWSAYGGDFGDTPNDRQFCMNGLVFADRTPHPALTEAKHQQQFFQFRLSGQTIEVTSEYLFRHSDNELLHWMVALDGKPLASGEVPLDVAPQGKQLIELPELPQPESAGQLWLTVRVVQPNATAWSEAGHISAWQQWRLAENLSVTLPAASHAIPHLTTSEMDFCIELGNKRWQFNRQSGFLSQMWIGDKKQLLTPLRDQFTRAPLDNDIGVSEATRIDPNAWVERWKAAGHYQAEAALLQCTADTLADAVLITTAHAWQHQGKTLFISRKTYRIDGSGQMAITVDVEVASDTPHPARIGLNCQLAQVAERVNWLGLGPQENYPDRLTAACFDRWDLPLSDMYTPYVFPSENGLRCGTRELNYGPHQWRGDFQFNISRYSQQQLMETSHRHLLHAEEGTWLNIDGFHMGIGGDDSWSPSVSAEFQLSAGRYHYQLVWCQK
Sequence of Paired box protein Pax-8 (Q06710 whole entry): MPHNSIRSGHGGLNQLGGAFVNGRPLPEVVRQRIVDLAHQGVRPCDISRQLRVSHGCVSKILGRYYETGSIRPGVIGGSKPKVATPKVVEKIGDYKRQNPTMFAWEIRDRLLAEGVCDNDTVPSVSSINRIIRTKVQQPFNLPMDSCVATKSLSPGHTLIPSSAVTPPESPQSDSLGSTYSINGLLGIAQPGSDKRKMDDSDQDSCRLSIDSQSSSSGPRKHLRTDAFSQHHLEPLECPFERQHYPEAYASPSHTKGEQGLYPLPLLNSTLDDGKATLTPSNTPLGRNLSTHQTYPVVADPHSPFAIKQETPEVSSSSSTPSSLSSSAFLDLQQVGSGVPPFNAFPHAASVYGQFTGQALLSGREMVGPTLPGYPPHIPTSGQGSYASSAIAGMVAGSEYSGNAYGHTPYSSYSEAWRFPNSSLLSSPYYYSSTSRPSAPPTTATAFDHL
Sequence of Beta Lactamase (Q932Y6 whole entry): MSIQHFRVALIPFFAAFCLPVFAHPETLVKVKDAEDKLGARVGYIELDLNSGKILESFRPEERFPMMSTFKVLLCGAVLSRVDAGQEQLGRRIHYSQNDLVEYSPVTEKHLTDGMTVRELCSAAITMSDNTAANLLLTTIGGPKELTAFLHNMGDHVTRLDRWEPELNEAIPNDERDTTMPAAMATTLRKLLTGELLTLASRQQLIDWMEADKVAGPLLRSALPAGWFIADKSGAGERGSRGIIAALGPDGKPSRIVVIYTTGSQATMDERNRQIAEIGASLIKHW

With `CCS(=O)(=O)c1ncc(Cl)c(C(=O)Nc2ccc(S(=O)(=O)N3CCC(C)CC3)cc2)n1` as the compound, how does the EC50 [1] read?
The EC50 was 4.05 µM (active).

And the AC50 [2]?
Its AC50 is 1.13 µM (active).

What about the IC50 [3] of the same compound?
The IC50 was > 64.6 µM (inactive).

What about the AC50 [4] of the same compound?
Its AC50 is 4.66 µM (active).

What about the AC50 [5] of the same compound?
The AC50 was 9.52 µM (active).

And the IC50 [6]?
Its IC50 is > 64.6 µM (inactive).

And the IC50 [7]?
Its IC50 is 52.5 µM (active).

And the IC50 [8]?
The IC50 was 1.81 µM (active).

What about the AC50 [9] of the same compound?
Its AC50 is 7.65 µM (active).

And the AC50 [10]?
The AC50 was 29.3 µM (active).

And the IC50 [11]?
The IC50 was 8.61 µM (active).

What about the IC50 [12] of the same compound?
Its IC50 is 6.11 µM (active).

What about the EC50 [13] of the same compound?
Its EC50 is 0.889 µM (active).

And the CC50 [14]?
Its CC50 is 34.7 µM (active).

What about the EC50 [15] of the same compound?
The EC50 was > 40 µM (inactive).

What about the AC50 [16] of the same compound?
The AC50 was 3.45 µM (active).

And the EC50 [17]?
The EC50 was 4.04 µM (active).

And the AC50 [18]?
Its AC50 is 5.39 µM (active).

What about the EC50 [19] of the same compound?
The EC50 was 1.72 µM (active).
